# Where a name gives a salt, the structure may show the parent alone.
# What was measured:
# [1] = Mass balance/recovery, metabolite profile, pharmacokinetics and safety of radiolabeled CYT-0387; assay type: in vivo, human; conditions: for share of circulating radioactivity: plasma
# Description: CYT-0387 is a selective small molecule inhibitor of Janus kinase 1 and 2 (JAK1/JAK2) currently under investigation to treat myelofibrosis. This study evaluated the mass balance/recovery, metabolite profile, pharmacokinetics, and safety of radiolabeled CYT-0387 in humans.
# Six healthy individuals (subjects) received a single oral dose of 200 mg CYT-0387 containing ˜100 μCi of [^14C]-CYT-0387. Blood samples were collected up to 21 days or until plasma radioactivity in 2 consecutive samples was below detection limit or urine and feces sampling was discontinued. Urine/feces samples were collected up to 21 days or until ≧90% administered dose was recovered in feces and urine and radioactivity in 2 consecutive sampling intervals were ≦1% administered dose. Plasma concentrations of CYT-0387 and metabolites were measured using LC-MS/MS and total radioactivity assessed by liquid scintillation counting. Metabolite profiling was performed in select urine, feces, and plasma samples. Safety assessments were performed throughout the study.
# [2] = Solid form hygroscopicity and stability; assay type: physicochemical; conditions: exposed to moisture
# Description: Dynamic Vapor Sorption: The hygroscopicity of N-(cyanomethyl)-4-(2-(4-morpholinophenylamino)pyrimidin-4-yl)benzamide dihydrochloride monohydrate Form II was evaluated at room temperature using a dynamic vapor sorption (DVS) instrument (TGA Q5000 TA Instruments, New Castle, Del.). Water adsorption and desorption were studied as a function of relative humidity (RH) over the range of 0 to 90% at room temperature. The humidity in the chamber was increased from the initial level 50% RH) to 60% RH and held until the solid and atmosphere reached equilibration. The equilibrium test was continued until passed or expired after 10 hours. At this point, RH was raised 10% higher and the process was repeated until 90% RH was reached and equilibrated. During this period, the water sorption was monitored. For desorption, the relative humidity was decreased in a similar manner to measure a full sorption/desorption cycle. All experiments were operated in dm/dt mode (mass variation over time) to determine the equilibration endpoint. Approximately 4 mg of solid CYT-0387 was used. Data analysis was conducted using Universal Analysis 2000 Version 4.7A (TA Instruments, New Castle, Del., USA).
hygroscopicity and physical stability [2],Compound,share of circulating radioactivity [1] [%],excreted in feces [1],excreted in urine ([1]; urine)
–,"NC(=O)CNC(=O)c1ccc(-c2ccnc(Nc3ccc(N4CCOCC4=O)cc3)n2)cc1 [Compound M8, N-(2-amino-2-oxoethyl)-4-(2-((4-(3-oxomorpholino)phenyl)amino)pyrimidin-4-yl)benzamide]",5.8,–,–
–,"O=C(O)c1ccc(-c2ccnc(Nc3ccc(N4CCOCC4=O)cc3)n2)cc1 [Compound M14, 4-(2-((4-(3-oxomorpholino)phenyl)amino)pyrimidin-4-yl)benzoic acid]",–,21.4 % of the dose,–
–,"CC(=O)Nc1ccc(Nc2nccc(-c3ccc(C(=O)NCC#N)cc3)n2)cc1 [Compound M20, 4-(2-((4-acetamidophenyl)amino)pyrimidin-4-yl)-N-(cyanomethyl)benzamide]",2.3,–,–
–,"N#CCNC(=O)c1ccc(-c2ccnc(Nc3ccc(N4CCOCC4=O)cc3)n2)cc1 [Compound M21, N-(cyanomethyl)-4-(2-{[4-(3-oxomorpholin-4-yl)phenyl]amino}pyrimidin-4-yl)benzamide]",64.2,12.7 % of the dose,11.5 % of the dose
hygroscopic and physically unstable,N#CCNC(=O)c1ccc(-c2ccnc(Nc3ccc(N4CCOCC4)cc3)n2)cc1 [N-(cyanomethyl)-4-(2-(4-morpholinophenylamino)pyrimidin-4-yl)benzamide (CYT-0387) dihydrochloride anhydrous Form I],–,–,–
